Source: patent US6737383B1, “Herbicidal oxadiazolidines” (priority 1999, dated 2004)

Legend:
large crabgrass = assay: Test D large crabgrass; type: in vivo, Digitaria sanguinalis; details: Postemergence, 0 to 100 scale
goosegrass = assay: Test D goosegrass; type: in vivo, Eleusine indica; details: Postemergence, 0 to 100 scale
itchgrass = assay: Test D itchgrass; type: in vivo, Rottboellia exaltata; details: Postemergence, 0 to 100 scale
common pursiane = assay: Test D common purslane; type: in vivo, Portulaca oleracea; details: Postemergence, 0 to 100 scale
sandbur = assay: Test D sandbur; type: in vivo, Cenchrus echinatus; details: Postemergence, 0 to 100 scale; for Sandbur plant response rating: 0 no injury, 100 complete control
Johnson grass = assay: Test D Johnson grass; type: in vivo, Sorghum halepense; details: Postemergence, 0 to 100 scale
bermuda-grass = assay: Test D bermudagrass; type: in vivo, Cynodon dactylon; details: Postemergence, 0 to 100 scale
chickweed = assay: Test E chickweed; type: in vivo, Stellaria media; details: Preemergence
black nightshade = assay: Test E black nightshade; type: in vivo, Solanum nigra; details: Preemergence
Russian thistle = assay: Test E Russian thistle; type: in vivo, Salsola kali; details: Postemergence
In short: (§1)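 Plants were grown under normal greenhouse practice; for postemergence, in sandy loam soil mixed 60:40 with potting mix, treated at the 1- to 4-leaf stage. The compound was in a non-phytotoxic solvent carrying a surfactant. After roughly 21 to 28 days plants were scored visually against untreated plants.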

deadnettle = assay: Test E deadnettle; type: in vivo, Lamium amplexicaule; details: Preemergence
annual bluegrass = assay: Test E annual bluegrass; type: in vivo, Poa annua; details: Preemergence
wild mustard = assay: Test E wild mustard; type: in vivo, Sinapis arvensis; details: Preemergence
spring barley = assay: Test E spring barley; type: in vivo, Hordeum vulgare; details: Postemergence
Description: (§2) Compounds evaluated in this test were formulated in a non-phytotoxic solvent mixture which included a surfactant and applied to plants that were in the 1- to 4-leaf stage (postemergence application). A mixture of sandy loam soil and greenhouse potting mix in a 60:40 ratio was used for the postemergence test.
(§3) Plantings of these crops and weed species were adjusted to produce plants of appropriate size for the postemergence test. All plant species were grown using normal greenhouse practices. Crop and weed species include annual bluegrass (Poa annua), blackgrass (Alopecurus myosuroides), black nightshade (Solanum nigra), chickweed (Stellaria media), common poppy (Papaver rhoeas), deadnettle (Lamium amplexicaule), downy brome (Bromus tectorum), field violet (Viola arvensis), galium (Galium aparine), green foxtail (Setaria viridis), Italian ryegrass (Lolium multiflorum), jointed goatgrass (Aegilops cylindrica), kochia (Kochia scoparia), lambsquarters (Chenopodium album), littleseed canarygrass (Phalaris minor), rape (Brassica napus), redroot pigweed (Amaranthus retroflexus), Russian thistle (Salsola kali), scentless chamomile (Matricaria inodora), spring barley (Hordeum vulgare), sugar beet (Beta vulgaris), sunflower (Helianthus annuus), ivyleaf speedwell (Veronica hederaefolia), spring wheat (Triticum aestivum), winter wheat (Triticum aestivum), wild buckwheat (Polygonum convolvulus), wild mustard (Sinapis arvensis), wild oat (Avena fatua), windgrass (Apera spica-venti) and winter barley (Hordeum vulgare).
(§4) Treated plants and untreated controls were maintained in a greenhouse for approximately 21 to 28 days, after which all treated plants were compared to untreated controls and visually evaluated. […] A dash response (-) means no test result.

sugar beet = assay: Test E sugar beet; type: in vivo, Beta vulgaris; details: Preemergence
green foxtail = assay: Test E green foxtail; type: in vivo, Setaria viridis; details: Postemergence
In short: as §1

downy brome = assay: Test E downy brome; type: in vivo, Bromus tectorum; details: Preemergence
winter barley = assay: Test E winter barley; type: in vivo, Hordeum vulgare; details: Postemergence
Description: as §2, §3, §4

lambsquarters = assay: Test E lambsquarters; type: in vivo, Chenopodium album; details: Postemergence
In short: as §1

rape = assay: Test E rape; type: in vivo, Brassica napus; details: Postemergence
In short: as §1

spring wheat = assay: Test E spring wheat; type: in vivo, Triticum aestivum; details: Preemergence
wild buckwheat [1] = assay: Test E wild buckwheat; type: in vivo, Polygonum convolvulus; details: Preemergence
wild buckwheat [2] = assay: Test E wild buckwheat; type: in vivo, Polygonum convolvulus; details: Postemergence
Description: as §2, §3, §4

jointed goatgrass = assay: Test E jointed goatgrass; type: in vivo, Aegilops cylindrica; details: Postemergence
Description: as §2, §3, §4

[3] = Rate 64 g/ha, 0 no injury, 100 complete control
[4] = Rate 125 g/ha, 0 no injury, 100 complete control
[5] = Rate 125 g/ha, 0 to 100 scale (0 no effect, 100 complete control)
[6] = Rate 500 g/ha, 0 to 100 scale where 0 is no effect and 100 is complete control
[7] = Rate 250 g/ha, 0 to 100 scale (0 no effect, 100 complete control)
[8] = Rate 500 g/ha, 0 to 100 scale, 0 no effect, 100 complete control

## CC(C)N(C(=O)n1oc(=O)n(C2CC2)c1=O)c1ccc(F)cc1F [Compound 299]
Large crabgrass; [3]
  Plant response rating Large crabgrass: 100
Large crabgrass; [4]
  Plant response rating Large crabgrass: 100
Large crabgrass; Rate 250 g/ha
  Plant response rating Large crabgrass: 100
Large crabgrass; Rate 500 g/ha
  Plant response rating Large crabgrass: 100
goosegrass; [3]
  Plant response rating, Goosegrass: 90
goosegrass; [4]
  Plant response rating, Goosegrass: 100
goosegrass; Rate 250 g/ha
  Plant response rating, Goosegrass: 100
goosegrass; Rate 500 g/ha
  Plant response rating, Goosegrass: 100
itchgrass; [3]
  Plant response rating, Itchgrass: 0
itchgrass; [4]
  Plant response rating, Itchgrass: 10
itchgrass; Rate 250 g/ha
  Plant response rating, Itchgrass: 50
itchgrass; Rate 500 g/ha
  Plant response rating, Itchgrass: 100
Common pursiane; [3]
  Plant response rating, C. purslane: 0
Common pursiane; [4]
  Plant response rating, C. purslane: 0
Common pursiane; Rate 250 g/ha
  Plant response rating, C. purslane: 0
Common pursiane; Rate 500 g/ha
  Plant response rating, C. purslane: 0
sandbur; Rate 64 g/ha
  Sandbur plant response rating: 90
sandbur; Rate 125 g/ha
  Sandbur plant response rating: 100
sandbur; Rate 250 g/ha
  Plant response rating, Sandbur: 100
sandbur; Rate 500 g/ha
  Plant response rating, Sandbur: 100
Johnson grass; [3]
  Plant response rating Johnsongrass: 0
Johnson grass; [4]
  Plant response rating Johnsongrass: 60
Johnson grass; Rate 250 g/ha
  Plant response rating Johnsongrass: 100
Johnson grass; Rate 500 g/ha
  Plant response rating Johnsongrass: 100
bermuda-grass; [3]
  Plant response rating, Bermudagrass: 90
bermuda-grass; [4]
  Plant response rating, Bermudagrass: 100
bermuda-grass; Rate 250 g/ha
  Plant response rating, Bermudagrass: 100
bermuda-grass; Rate 500 g/ha
  Plant response rating, Bermudagrass: 100

## CC(C)N(C(=O)n1oc(=O)n(C(C)C)c1=O)c1ccc(F)cc1F [Compound 109]
chickweed; [5]
  Plant response rating, Chickweed: 40
chickweed; [6]
  Plant response rating, Chickweed: 100
Black nightshade; [5]
  Plant response rating, Blk nightshade: 75
Black nightshade; Rate 250 g/ha, 0 to 100 scale
  Plant response rating, Blk nightshade: 90
Black nightshade; [6]
  Plant response rating, Blk nightshade: 90
Russian thistle; Rate 125 g/ha, 0 to 100 scale
  Plant response rating, Russian thistle: 0
Russian thistle; [7]
  Plant response rating, Russian thistle: 0
Russian thistle; [8]
  Plant response rating, Russian thistle: 0
deadnettle; [5]
  Plant response rating, Deadnettle: 20
deadnettle; Rate 250 g/ha, 0 to 100 scale
  Plant response rating, Deadnettle: 30
deadnettle; [6]
  Plant response rating, Deadnettle: 30
Annual bluegrass; [5]
  Plant response rating, Annual bluegras: 40
Annual bluegrass; Rate 250 g/ha, 0 to 100 scale
  Plant response rating, Annual bluegras: 90
Annual bluegrass; [6]
  Plant response rating, Annual bluegras: 75
Wild mustard; [5]
  Plant response rating, Wild mustard: 30
Wild mustard; Rate 250 g/ha, 0 to 100 scale
  Plant response rating, Wild mustard: 85
Wild mustard; [6]
  Plant response rating, Wild mustard: 80
Spring barley; Rate 125 g/ha, 0 to 100 scale
  Plant response rating, Spring Barley: 30
Spring barley; [7]
  Plant response rating, Spring Barley: 20
Spring barley; [8]
  Plant response rating, Spring Barley: 20
Sugar beet; [5]
  Plant response rating, Sugar beet: 0
Sugar beet; Rate 250 g/ha, 0 to 100 scale
  Plant response rating, Sugar beet: 60
Sugar beet; [6]
  Plant response rating, Sugar beet: 70
Green foxtail; Rate 125 g/ha, 0 to 100 scale
  Plant response rating, Green foxtail: 30
Green foxtail; [7]
  Plant response rating, Green foxtail: 65
Green foxtail; [8]
  Plant response rating, Green foxtail: 80
Downy brome; [5]
  Plant response rating, Downy brome: 0
Downy brome; Rate 250 g/ha, 0 to 100 scale
  Plant response rating, Downy brome: 80
Downy brome; [6]
  Plant response rating, Downy brome: 60
Winter barley; Rate 125 g/ha, 0 to 100 scale
  Plant response rating, Barley (winter): 40
Winter barley; [7]
  Plant response rating, Barley (winter): 20
Winter barley; [8]
  Plant response rating, Barley (winter): 10
lambsquarters; Rate 125 g/ha, 0 to 100 scale
  Plant response rating Lambsquarters: 20
lambsquarters; [7]
  Plant response rating Lambsquarters: 30
lambsquarters; [8]
  Plant response rating Lambsquarters: 30
rape; Rate 125 g/ha, 0 to 100 scale
  Plant response rating, Rape: 50
rape; [7]
  Plant response rating, Rape: 50
rape; [8]
  Plant response rating, Rape: 60
Spring wheat; [5]
  Plant response rating, Spring Wheat: 20
Spring wheat; Rate 250 g/ha, 0 to 100 scale
  Plant response rating, Spring Wheat: 40
Spring wheat; [6]
  Plant response rating, Spring Wheat: 50
Wild buckwheat [1]; [5]
  Plant response rating, Wild buckwheat: 20
Wild buckwheat [1]; Rate 250 g/ha, 0 to 100 scale
  Plant response rating, Wild buckwheat: 85
Wild buckwheat [1]; [6]
  Plant response rating, Wild buckwheat: 90
Wild buckwheat [2]; Rate 125 g/ha, 0 to 100 scale
  Plant response rating, Wild buckwheat: 10
Wild buckwheat [2]; [7]
  Plant response rating, Wild buckwheat: 20
Wild buckwheat [2]; [8]
  Plant response rating, Wild buckwheat: 10
Jointed goatgrass; Rate 125 g/ha, 0 to 100 scale
  Plant response rating, Jointed goatgra: 10
Jointed goatgrass; [7]
  Plant response rating, Jointed goatgra: 5
Jointed goatgrass; [8]
  Plant response rating, Jointed goatgra: 30
